Reference: patent US20040103452A1, “Inducible apomixis” (priority 2001, published 2004)

Tested on: Arabidopsis thaliana Ler x transgenic WS (AtLTP1::AtSERK1) F1 plants
Assay: SSLP analysis of F2 progeny for apomictic plants after 2,4-D application to F1 flower buds
Type: in vivo
Details: flower buds dipped in 2 μM 2,4-D 1 to 2 days pre-anthesis, repeated twice
Protocol: Transgenic T3 Arabidopsis thaliana ecotype WS plants, i.e. transgenic plants in the third generation after transformation, that are homozygous for the AtLTP1::AtSERK1 construct are used as male donor to pollinate Arabidopsis thaliana ecotype Landsberg erecta (L r) plants. The flower buds of the F1 plants at stage 11 to 12 (Smyth et al., The Plant Cell 2: 755, 1990) approximately 1 to 2 days pre-anthesis are dipped in an aqueous solution containing 2 μM 2,4-D supplemented with 0.04% (v/v) Triton X-100 as a surfactant as described by Vivian-Smith et al., (Plant Physiol. 121: 437, 1999). The treatment is repeated twice in a two-day period and plants are left to set F2 seeds. In parallel a control cross between wild-type Ler female and wild-type WS male plant is made to obtain F1 plants. Those F1 plants are designated as wild-type F1 plants and they are analysed in the same way as the transgenic F1 plants except that they are not auxin treated.
The F2 seeds are grown into seedlings and a few rosette leaves from each plant are used for DNA extraction as described by Ponce et al., Mol. Gen. Genet. 261: 408, 1999. Simple Sequence Length Polymorphism (SSLP) analysis is carried out by simultaneous amplification of 11 SSLP markers (see Table 1) using multiplex PCR with fluorescently labeled primers as described by Ponce et al. supra. […]

For `O=C(O)COc1ccc(Cl)cc1Cl` [2, 4 D, 2,4-dichlorophenoxyacetic acid], the “Plants h t rozygous for 11 SSLP markers Observed” value (AtLTP::AtSERK1 cross No 14 (line with lower SERK1 level), 144 F2 plants analyzed) was 0 and the “Plants h t rozygous for 11 SSLP markers Observed” value (AtLTP::AtSERK1 cross No 15, 175 F2 plants analyzed) was 2.
